Paper PMC3961306, “Comparison of the Cancer Gene Targeting and Biochemical Selectivities of All Targeted Kinase Inhibitors Approved for Clinical Use” (PLoS ONE, 2014)

Experiments:
Experiment in all cases: Kinase profiling in a biochemical assay panel (mobility shift assays and ELISA), %-inhibition at 1 μM; selectivity entropy
[1] = target: T1, panel of more than 300 wild-type and mutant kinases (313 kinase panel) (Homo sapiens, UniProt Q13163)
T1 sequence (Q13163 1-448): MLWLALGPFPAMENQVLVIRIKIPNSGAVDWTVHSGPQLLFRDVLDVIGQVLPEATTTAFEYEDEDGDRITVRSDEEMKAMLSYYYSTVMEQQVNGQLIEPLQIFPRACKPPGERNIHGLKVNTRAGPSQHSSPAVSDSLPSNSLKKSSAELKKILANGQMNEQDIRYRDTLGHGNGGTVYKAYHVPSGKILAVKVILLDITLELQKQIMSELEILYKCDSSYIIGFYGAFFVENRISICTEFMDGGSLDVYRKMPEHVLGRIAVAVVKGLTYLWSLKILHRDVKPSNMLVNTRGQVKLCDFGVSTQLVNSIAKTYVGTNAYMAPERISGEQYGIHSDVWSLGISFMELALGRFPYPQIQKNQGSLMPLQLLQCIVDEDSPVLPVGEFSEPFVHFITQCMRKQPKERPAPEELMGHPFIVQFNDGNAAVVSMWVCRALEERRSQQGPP

[2] = target: panel of more than 300 wild-type and mutant kinases (313 kinase panel) (Homo sapiens, UniProt Q9NYY3)
[3] = target: T2, panel of more than 300 wild-type and mutant kinases (313 kinase panel) (Homo sapiens, UniProt P15735)
T2 sequence (P15735 1-406): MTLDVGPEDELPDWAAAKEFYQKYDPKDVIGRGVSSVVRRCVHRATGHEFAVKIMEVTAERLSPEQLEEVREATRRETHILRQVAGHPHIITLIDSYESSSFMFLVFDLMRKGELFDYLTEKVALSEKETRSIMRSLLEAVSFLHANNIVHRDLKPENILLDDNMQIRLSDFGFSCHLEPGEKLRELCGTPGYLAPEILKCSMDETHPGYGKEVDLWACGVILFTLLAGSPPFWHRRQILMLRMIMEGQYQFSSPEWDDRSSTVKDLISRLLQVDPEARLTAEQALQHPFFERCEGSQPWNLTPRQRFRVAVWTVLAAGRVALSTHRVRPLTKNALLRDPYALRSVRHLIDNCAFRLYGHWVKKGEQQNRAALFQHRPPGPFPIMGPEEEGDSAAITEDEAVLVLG

[4] = target: panel of more than 300 wild-type and mutant kinases (313 kinase panel) (Homo sapiens, UniProt P54756)
[5] = target: T3, panel of more than 300 wild-type and mutant kinases (313 kinase panel) (Homo sapiens, UniProt P54762)
T3 sequence (P54762 18-984): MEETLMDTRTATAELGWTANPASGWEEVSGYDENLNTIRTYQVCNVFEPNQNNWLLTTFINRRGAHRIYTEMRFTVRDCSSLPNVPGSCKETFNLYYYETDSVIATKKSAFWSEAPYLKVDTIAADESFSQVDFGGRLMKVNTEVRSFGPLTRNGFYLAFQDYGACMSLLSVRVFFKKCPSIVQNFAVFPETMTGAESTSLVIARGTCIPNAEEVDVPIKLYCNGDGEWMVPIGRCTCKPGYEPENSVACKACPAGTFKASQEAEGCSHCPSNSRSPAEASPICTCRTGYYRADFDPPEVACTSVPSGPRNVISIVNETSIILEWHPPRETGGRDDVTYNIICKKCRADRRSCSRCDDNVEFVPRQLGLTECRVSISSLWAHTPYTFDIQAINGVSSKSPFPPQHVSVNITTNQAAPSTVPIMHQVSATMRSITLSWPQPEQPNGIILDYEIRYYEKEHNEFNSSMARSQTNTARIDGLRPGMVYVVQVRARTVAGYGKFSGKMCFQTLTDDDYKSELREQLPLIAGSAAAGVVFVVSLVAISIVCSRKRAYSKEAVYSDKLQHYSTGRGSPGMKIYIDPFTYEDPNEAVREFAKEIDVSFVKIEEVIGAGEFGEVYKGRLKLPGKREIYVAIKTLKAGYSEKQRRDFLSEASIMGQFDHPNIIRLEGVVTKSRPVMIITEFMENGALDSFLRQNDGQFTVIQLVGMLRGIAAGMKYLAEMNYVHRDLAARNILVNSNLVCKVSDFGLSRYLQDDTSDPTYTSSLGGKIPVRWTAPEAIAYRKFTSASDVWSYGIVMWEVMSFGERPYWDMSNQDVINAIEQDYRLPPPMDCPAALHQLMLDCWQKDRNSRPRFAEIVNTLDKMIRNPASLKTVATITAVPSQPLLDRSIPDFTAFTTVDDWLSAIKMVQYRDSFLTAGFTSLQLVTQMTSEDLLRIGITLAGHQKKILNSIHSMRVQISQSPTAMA

[6] = target: T4, panel of more than 300 wild-type and mutant kinases (313 kinase panel) (Homo sapiens, UniProt Q13188)
T4 sequence (Q13188 1-491): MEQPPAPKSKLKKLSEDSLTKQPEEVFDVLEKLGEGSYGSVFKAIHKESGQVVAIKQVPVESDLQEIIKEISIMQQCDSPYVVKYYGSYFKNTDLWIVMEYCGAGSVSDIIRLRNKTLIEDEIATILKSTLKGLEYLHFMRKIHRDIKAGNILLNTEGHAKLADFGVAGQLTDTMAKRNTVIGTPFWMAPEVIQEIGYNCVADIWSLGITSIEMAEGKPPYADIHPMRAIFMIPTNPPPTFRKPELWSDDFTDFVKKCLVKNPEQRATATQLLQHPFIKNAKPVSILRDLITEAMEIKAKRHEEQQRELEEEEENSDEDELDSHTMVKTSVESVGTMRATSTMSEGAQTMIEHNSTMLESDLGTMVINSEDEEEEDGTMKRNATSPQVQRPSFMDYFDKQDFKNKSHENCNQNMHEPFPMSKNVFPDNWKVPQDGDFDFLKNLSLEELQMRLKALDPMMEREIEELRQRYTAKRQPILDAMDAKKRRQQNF

[7] = target: panel of more than 300 wild-type and mutant kinases (313 kinase panel) (Homo sapiens, UniProt Q13557)
[8] = kinase MAP2K5, compound at 1 μM

panel of more than 300 wild-type and mutant kinases (313 kinase panel) (Homo sapiens, UniProt Q13557), sequence (Q13557 whole entry, change not shown): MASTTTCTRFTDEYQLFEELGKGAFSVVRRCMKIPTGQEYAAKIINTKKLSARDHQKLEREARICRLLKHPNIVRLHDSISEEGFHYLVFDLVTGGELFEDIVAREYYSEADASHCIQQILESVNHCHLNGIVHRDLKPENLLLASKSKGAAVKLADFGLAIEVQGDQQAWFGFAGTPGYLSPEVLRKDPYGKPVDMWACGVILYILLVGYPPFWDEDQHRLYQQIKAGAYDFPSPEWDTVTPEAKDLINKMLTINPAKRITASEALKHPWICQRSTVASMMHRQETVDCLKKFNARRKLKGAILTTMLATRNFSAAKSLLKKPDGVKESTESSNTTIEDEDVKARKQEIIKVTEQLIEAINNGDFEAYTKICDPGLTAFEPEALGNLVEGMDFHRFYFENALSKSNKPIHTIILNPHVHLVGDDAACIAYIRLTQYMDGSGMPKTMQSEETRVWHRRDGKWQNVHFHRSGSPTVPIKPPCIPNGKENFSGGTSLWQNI

Row | SMILES | %-inhibition of MAP2K5 [1, 8] [%] | %-inhibition of PLK2 ([2]; kinase PLK2, 1 μM) [%] | %-inhibition of PHKG2 ([3]; kinase PHKG2, 1 μM) [%] | %-inhibition of EPHA5 ([4]; kinase EPHA5, compound at 1 μM) [%] | %-inhibition of EPHB1 ([5]; kinase EPHB1, compound at 1 μM) [%] | %-inhibition of MST2 ([6]; kinase MST2, 1 μM) [%] | %-inhibition, CaMK2δ ([7]; kinase CaMK2δ, 1 μM compound) [%] | %-inhibition of PHKG2 ([3]; 1 µM) [%] | %-inhibition of EPHA5 ([4]; 1 µM) [%] | %-inhibition of EPHB1 ([5]; 1 µM) [%] | %-inhibition of MAP2K5 ([1]; 1 µM) [%] | %-inhibition of MST2 ([6]; 1 µM) [%] | %-inhibition, CaMK2δ ([7]; 1 µM) [%] | %-inhibition of PLK2 ([2]; 1 µM) [%]
1 | COc1cc(Nc2c(C#N)cnc3cc(OCCCN4CCN(C)CC4)c(OC)cc23)c(Cl)cc1Cl [bosutinib] | 63 | 21 | – | – | – | – | – | – | – | – | – | – | – | –
2 | COc1cc2nccc(Oc3ccc(NC(=O)C4(C(=O)Nc5ccc(F)cc5)CC4)cc3)c2cc1OC [cabozantinib] | 17 | 4.4 | -0.305 | 99 | 95 | -0.31 | 0.942 | – | – | – | – | – | – | –
3 | C[C@@H](Oc1cc(-c2cnn(C3CCNCC3)c2)cnc1N)c1c(Cl)ccc(F)c1Cl [crizotinib] | 24 | 1.1 | 10 | 71 | 93 | 13 | 4 | – | – | – | – | – | – | –
4 | CC(C)(C)c1nc(-c2cccc(NS(=O)(=O)c3c(F)cccc3F)c2F)c(-c2ccnc(N)n2)s1 [dabrafenib] | 70 | -4.64 | 2 | – | 12 | – | -0.23 | – | – | – | – | – | – | –
5 | Cc1nc(Nc2ncc(C(=O)Nc3c(C)cccc3Cl)s2)cc(N2CCN(CCO)CC2)n1 [dasatinib] | – | – | – | – | – | – | -7.61 | – | – | – | – | – | – | –
6 | C#Cc1cccc(Nc2ncnc3cc(OCCOC)c(OCCOC)cc23)c1 [erlotinib] | – | – | – | – | – | – | – | 4 | 38 | 22 | 92 | 7 | -11 | -3.59
7 | CO[C@H]1C[C@@H]2CC[C@@H](C)[C@@](O)(O2)C(=O)C(=O)N2CCCC[C@H]2C(=O)O[C@H]([C@H](C)C[C@@H]2CC[C@@H](OCCO)[C@H](OC)C2)CC(=O)[C@H](C)/C=C(\C)[C@@H](O)[C@@H](OC)C(=O)[C@H](C)C[C@H](C)/C=C/C=C/C=C/1C [everolimus] | 1.34 | 1.38 | -8 | -1.69 | -0.233 | -2.3 | -2.12 | – | – | – | – | – | – | –
8 | O=S(=O)(c1cccc2cnccc12)N1CCCNCC1 [fasudil] | 13 | 7 | 4 | -3.43 | -7 | 1.77 | 3.46 | – | – | – | – | – | – | –
9 | CS(=O)(=O)CCNCc1ccc(-c2ccc3ncnc(Nc4ccc(OCc5cccc(F)c5)c(Cl)c4)c3c2)o1 [lapatinib] | 1.63 | -4 | – | 6 | – | – | -33 | 0.269 | – | -0.743 | – | -0.701 | – | –
10 | Cc1cn(-c2cc(NC(=O)c3ccc(C)c(Nc4nccc(-c5cccnc5)n4)c3)cc(C(F)(F)F)c2)cn1 [nilotinib] | -7.56 | – | -9 | – | 72 | -8 | – | – | 93 | – | – | – | 1.2 | 6
11 | Cc1ccc(Nc2nccc(N(C)c3ccc4c(C)n(C)nc4c3)n2)cc1S(N)(=O)=O [pazopanib] | 13 | 1.23 | 1 | 32 | 27 | 2 | 1.54 | – | – | – | – | – | – | –
12 | Cc1ccc(C(=O)Nc2ccc(CN3CCN(C)CC3)c(C(F)(F)F)c2)cc1C#Cc1cnc2cccnn12 [ponatinib] | 61 | -1.17 | – | – | – | – | – | – | – | – | – | – | – | –
13 | CNC(=O)c1cc(Oc2ccc(NC(=O)Nc3ccc(Cl)c(C(F)(F)F)c3)c(F)c2)ccn1 [regorafenib] | 17 | -3.23 | -8 | 97 | 76 | -6.39 | 1.53 | – | – | – | – | – | – | –
